Reference: patent US20240285615A1, “MEDICAMENTS COMPRISING GLYCOSIDASE INHIBITORS” (priority 2021, published 2024)
Read-outs that look alike come from different tables or passages of the source.

Legend:
[1] = tested on: kainate-induced seizure rat model; details: rats, daily oral gavage for 3 consecutive days
Description: Compound of formula (I) is evaluated in the kainate-induced seizure rat model. Sprague-Dawley rats are treated with intraperitoneal injection of kainate (10 mg/kg) to induce seizure or with saline as vehicle control. […] The onset of status epilepticus (SE) is defined as the time from kainate injection to the occurrence of continuous seizure activity (Racine score 4-5) over a period of 4 h. Four weeks following the administration of kainate, animals undergo EEG surgery for electrodes implantation at the surface of the dura mater. […] Then, the animals receive a daily administration (oral gavage) of compound formula (I) for 3 consecutive days during which, cerebral activity is monitored by EEG recording. Animals are finally sacrificed ninety-six hours (4 days) post-baseline.

[2] = Phase 1 Part 2: multiple BID doses for 12 days, plasma pharmacokinetics; type: in vivo, human; details: for AR (accumulation ratio, AUC0-tau at Day 12/AUC0-tau at Day 1) / concentration at 12 day / Cmax / Tmax / half-life / AUC: plasma; for concentration at 12 day / Cmax / Tmax / half-life / AUC: both sexes, human; for concentration at 12 day: in vivo, read-out: Cmin; for Cmax / Tmax / half-life / AUC: oral; for Tmax: median (min, max); for AUC: read-out: AUC0-tau
Description: (§1) The study was a single-centre, randomized, placebo-controlled single- and multiple ascending dose study in healthy male and female (no childbearing potential) volunteers aged 18-80 years. Study objectives were safety, tolerability, food effect and pharmacokinetics. Following identification of safe and tolerable single doses in healthy male subjects aged 18-55 years, separate cohorts were dosed to assess food effect. Furthermore, multiple-dose safety, tolerability, pharmacokinetics, CSF drug levels and pharmacodynamics were assessed in elderly (age 55-80 years) male or healthy non-child-bearing potential female volunteers.
Day 1: Twice a day (BID) dosing. Day 2: No dosing. Day 3-11: 9 days of BID dosing. Day 12: one dose in the morning.

DSS colitis model = assay: In vivo treatment efficacy on DSS colitis model; details: balb/c mice, oral gavage for 21 days, 5% DSS
Description: The dextran sodium sulfate (DSS) is a negatively charged sulfated polysaccharide of approximately 36-50 kDa which induces colitis when administered at 5% (weight/volume) in drinking water for several days (Okayasu I. et al. (1990) Gastroenterology 98:694-702).
Adult (balb/c) mice are randomized and are allowed to a period of acclimatization for one week. After this, the compound of formula (I) or vehicle is administered for 21 days by oral gavage, starting 2 weeks before the DSS treatment (Day −14) and continuing during DSS treatment and until the end of the experiment (Day +9). At Day 0, animals are getting access to a 5% (weight/volume) DSS solution in drinking water until Day +5. The DSS solution is then removed and replaced by drinking water for 4 more days until Day +9. From Day 0 until the end of the experiment […], animals are monitored daily for clinical signs of colitis including bodyweight loss, loose stools and/or diarrhoea and presence of occult or gross blood in the stools. At Day +12 or when animals reach humane endpoints, colons are dissected out, to measure their lengths and observe their content. A sample of distal colon is processed for histopathology. […]
Histological injury and inflammation are scored as described in Gilbert et al (2012) (Gilbert S. et al. (2012) EMBO Mol. Med. 4: 109-124). […]

[3] = tested on: patients with probable PSP Richardson's syndrome; assay: Phase 2 clinical trial, dose extension (Example 7); type: in vivo, human; details: 300 mg, 150 mg or 75 mg TID PO
Description: The study design of this Example 7 is analogous to the study described in Example 6, a randomized, multi-centre, double-blind, placebo-controlled trial to study the safety and tolerability of compound (I) in patients with probable PSP Richardson's syndrome. Approximately 40 patients (40 to 85 years of age, inclusive) are randomized in a 2:1:1:1 ratio to 300 mg or 150 mg or 75 mg or placebo TID PO, with or without food.

[4] = tested on: hTauP301L-Tg mouse model of tauopathy; assay: In vivo effect on the hTauP301L-Tg mouse model of tauopathy; details: hTauP301L-Tg mice
Excerpt: Concomitant to the pathology, these mice progressively develop motoric deficits like clasping behaviour accompanied by a diminution of general mobility, and die prematurely at the age of 8-11 months (reMYND unpublished data, Terwel et al., 2005).

[5] = Phase 1 Part 1b: food effect, single 300 mg dose fasted/fed, plasma pharmacokinetics; type: in vivo, human; details: for Tmax / AUC(0-inf) / Cmax / half-life: human, plasma; for AUC(0-inf) / Cmax / half-life: arithmetic mean
Description: as §1, with “volunteers. [table]” for “volunteers.”

[6] = 100 mg BID, Day 12, elderly subjects, arithmetic mean
[7] = 250 mg BID, Day 12, elderly subjects, arithmetic mean
[8] = 500 mg BID, Day 12, elderly subjects, arithmetic mean
[9] = po, single oral dose 300 mg, fasted condition, healthy elderly subjects
[10] = po, single oral dose 300 mg, fed condition, healthy elderly subjects

**Q.** With CC(=O)Nc1nnc(N2CCN([C@@H](C)c3ccc4c(c3)OCO4)CC2)s1 [Compound (I)] as the molecule, how does the “epileptic activity by EEG (number of seizures, seizure duration, interictal spike frequency)” value [1] read?
**A.** reducing the epileptic activity

**Q.** What about the “AR (accumulation ratio, AUC0-tau at Day 12/AUC0-tau at Day 1)” value [2, 6] of the same molecule?
**A.** 1.35

**Q.** And the “AR (accumulation ratio, AUC0-tau at Day 12/AUC0-tau at Day 1)” value [2, 7]?
**A.** 1.36

**Q.** What about the “AR (accumulation ratio, AUC0-tau at Day 12/AUC0-tau at Day 1)” value [2, 8] of the same molecule?
**A.** 1.25

**Q.** And the “dose proportionality of Cmax, AUC0-tau and AUC12-24” value ([2]; Day 1, BID 100 mg to BID 500 mg)?
**A.** Dose proportionality was observed

**Q.** What about the “dose proportionality of Cmax, AUC0-tau and AUC0-48” value ([2]; Day 12, BID 100 mg to BID 500 mg) of the same molecule?
**A.** Dose proportionality was observed

**Q.** What about the concentration at 12 day [2, 6] of the same molecule?
**A.** 84 ng/mL

**Q.** What about the concentration at 12 day [2, 7] of the same molecule?
**A.** 308 ng/mL

**Q.** What about the concentration at 12 day [2, 8] of the same molecule?
**A.** 743 ng/mL

**Q.** What about the Cmax ([2]; 100 mg, 100 mg BID, Day 1 (first dose), elderly subjects, arithmetic mean) of the same molecule?
**A.** 1450 ng/mL

**Q.** And the Tmax ([2]; 100 mg, 100 mg BID, Day 1 (first dose), elderly subjects)?
**A.** 0.75 h

**Q.** And the half-life ([2]; 100 mg, 100 mg BID, Day 1, elderly subjects, arithmetic mean, read-out: t1/2 (converted))?
**A.** 3.9 h

**Q.** What about the AUC ([2]; 100 mg, 100 mg BID, Day 1, tau 12 h, elderly subjects, arithmetic mean) of the same molecule?
**A.** 4120 ng·h/mL

**Q.** And the Cmax ([2]; 100 mg, 100 mg BID, Day 12, elderly subjects, arithmetic mean)?
**A.** 1340 ng/mL

**Q.** And the half-life ([2]; 100 mg, 100 mg BID, Day 12, elderly subjects, arithmetic mean, read-out: t1/2 (converted))?
**A.** 7.84 h

**Q.** And the Tmax ([2]; 100 mg, 100 mg BID, Day 12, elderly subjects)?
**A.** 2.25 h

**Q.** And the AUC ([2]; 100 mg, 100 mg BID, Day 12, tau 12 h, elderly subjects, arithmetic mean)?
**A.** 5440 ng·h/mL

**Q.** And the Cmax ([2]; 250 mg, 250 mg BID, Day 1 (first dose), elderly subjects, arithmetic mean)?
**A.** 3630 ng/mL

**Q.** What about the Tmax ([2]; 250 mg, 250 mg BID, Day 1 (first dose), elderly subjects) of the same molecule?
**A.** 0.5 h

**Q.** What about the half-life ([2]; 250 mg, 250 mg BID, Day 1, elderly subjects, arithmetic mean, read-out: t1/2 (converted)) of the same molecule?
**A.** 4.74 h

**Q.** And the AUC ([2]; 250 mg, 250 mg BID, Day 1, tau 12 h, elderly subjects, arithmetic mean)?
**A.** 10700 ng·h/mL

**Q.** And the Cmax ([2]; 250 mg, 250 mg BID, Day 12, elderly subjects, arithmetic mean)?
**A.** 3740 ng/mL

**Q.** What about the half-life ([2]; 250 mg, 250 mg BID, Day 12, elderly subjects, arithmetic mean, read-out: t1/2 (converted)) of the same molecule?
**A.** 10.2 h

**Q.** What about the Tmax ([2]; 250 mg, 250 mg BID, Day 12, elderly subjects) of the same molecule?
**A.** 1 h

**Q.** And the AUC ([2]; 250 mg, 250 mg BID, Day 12, tau 12 h, elderly subjects, arithmetic mean)?
**A.** 14300 ng·h/mL

**Q.** What about the Cmax ([2]; 500 mg, 500 mg BID, Day 1 (first dose), elderly subjects, arithmetic mean) of the same molecule?
**A.** 6440 ng/mL

**Q.** And the Tmax ([2]; 500 mg, 500 mg BID, Day 1 (first dose), elderly subjects)?
**A.** 1.02 h

**Q.** What about the half-life ([2]; 500 mg, 500 mg BID, Day 1, elderly subjects, N=1, read-out: t1/2 (converted)) of the same molecule?
**A.** 6.19 h

**Q.** And the AUC ([2]; 500 mg, 500 mg BID, Day 1, tau 12 h, elderly subjects, arithmetic mean)?
**A.** 24300 ng·h/mL

**Q.** And the Cmax ([2]; 500 mg, 500 mg BID, Day 12, elderly subjects, arithmetic mean)?
**A.** 6670 ng/mL

**Q.** And the half-life ([2]; 500 mg, 500 mg BID, Day 12, elderly subjects, arithmetic mean, read-out: t1/2 (converted))?
**A.** 10.7 h

**Q.** And the Tmax ([2]; 500 mg, 500 mg BID, Day 12, elderly subjects)?
**A.** 1.5 h

**Q.** And the AUC ([2]; 500 mg, 500 mg BID, Day 12, tau 12 h, elderly subjects, arithmetic mean)?
**A.** 30200 ng·h/mL

**Q.** And the half-life ([2]; 100 to 500 mg BID, single dose and multiple dose conditions, read-out: terminal half-life (t½), range of means)?
**A.** 3.9 to 10.7 h

**Q.** And the “disease score (body weight loss, stool, blood in feces, general appearance)” value (DSS colitis model)?
**A.** decrease in the disease score

**Q.** What about the “tissue inflammation by histology examination” value (DSS colitis model) of the same molecule?
**A.** significant decrease of tissue inflammation

**Q.** What about the “efficacy, safety and tolerability of the preferred dosage regimen” value [3] of the same molecule?
**A.** especially effective, safe and well tolerated

**Q.** And the “extent of neuronal pathology” value [4]?
**A.** diminishing the extent of neuronal pathology

**Q.** And the “motoric function (clasping behaviour, beam walk)” value [4]?
**A.** improvement in motoric function

**Q.** What about the survival rate [4] of the same molecule?
**A.** significant benefit in survival rate

**Q.** What about the “overall exposure via AUC0-t and AUC0-inf, fed versus fasted” value [5] of the same molecule?
**A.** comparable

**Q.** What about the “difference of exposure (AUC) and Cmax, healthy elderly versus healthy young cohort” value ([5]; fasted state) of the same molecule?
**A.** 15%

**Q.** What about the “Cmax in fed state as share of Cmax in fasted state” value ([5]; healthy elderly subjects) of the same molecule?
**A.** about 60%

**Q.** And the “delay of absorption in fed state” value ([5]; healthy elderly subjects)?
**A.** approximately 3 hours

**Q.** And the “exposure (AUC) in fed state as share of exposure in fasted state” value ([5]; healthy elderly subjects)?
**A.** approximately 90%

**Q.** And the Tmax ([5]; oral, fasted condition, read-out: median Tmax)?
**A.** 1 h

**Q.** And the Tmax ([5]; oral, with high-fat, high-calorie meal, read-out: median Tmax)?
**A.** 4 h

**Q.** And the AUC(0-inf) [5, 9]?
**A.** 17100 ng·h/mL

**Q.** And the Cmax [5, 9]?
**A.** 4160 ng/mL

**Q.** And the half-life [5, 9]?
**A.** 7.27 h

**Q.** What about the Tmax ([5]; po, single oral dose 300 mg, fasted condition, healthy elderly subjects, median (min, max), read-out: Tmax) of the same molecule?
**A.** 1 h

**Q.** And the AUC(0-inf) [5, 10]?
**A.** 15100 ng·h/mL

**Q.** What about the Cmax [5, 10] of the same molecule?
**A.** 2410 ng/mL

**Q.** What about the half-life [5, 10] of the same molecule?
**A.** 7.06 h

**Q.** What about the Tmax ([5]; po, single oral dose 300 mg, fed condition, healthy elderly subjects, median (min, max), read-out: Tmax) of the same molecule?
**A.** 4 h
